According to PubChem BioAssay (NCI):
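Each compound was tested at five concentrations against cells in 96-well plates for 48 hours. GI50 is the concentration that inhibits growth by half. TGI: concentration producing complete growth inhibition.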

Experiments:
Test in all cases: growth of human tumour cells (NCI), 48 h; in the data active = GI50 below about 0.43 µM; inactive = the rest
[1] = test system: HCC-2998 colon
[2] = test system: OVCAR-4 ovarian
[3] = test system: HT29 colon
[4] = test system: SF-539 CNS
[5] = test system: U251 CNS
[6] = test system: SK-OV-3 ovarian
[7] = test system: K-562 leukemia
[8] = test system: SF-295 CNS
[9] = test system: HOP-92 NSCLC
[10] = test system: LOX IMVI melanoma
[11] = test system: MDA-MB-231 breast
[12] = test system: BT-549 breast
[13] = test system: T-47D breast
[14] = test system: UACC-62 melanoma
[15] = test system: SK-MEL-2 melanoma
[16] = test system: SF-268 CNS
[17] = test system: RPMI-8226 leukemia
[18] = test system: NCI/ADR-RES ovarian
[19] = test system: A498 renal
[20] = test system: TK-10 renal
[21] = test system: MOLT-4 leukemia
[22] = test system: CCRF-CEM leukemia
[23] = test system: SK-MEL-28 melanoma
[24] = test system: OVCAR-5 ovarian
[25] = test system: MCF7 breast
[26] = test system: SNB-19 CNS
[27] = test system: HL-60(TB) leukemia
[28] = test system: SR leukemia
[29] = test system: SK-MEL-5 melanoma
[30] = test system: KM12 colon
[31] = test system: RXF 393 renal
[32] = test system: UACC-257 melanoma
[33] = test system: OVCAR-3 ovarian
[34] = test system: SN12C renal
[35] = test system: NCI-H23 lung
[36] = test system: NCI-H460 lung
[37] = test system: HCT-116 colon
[38] = test system: SNB-75 CNS
[39] = test system: NCI-H522 lung
[40] = test system: A549 NSCLC
[41] = test system: EKVX NSCLC
[42] = test system: HCT-15 colon
[43] = test system: ACHN renal
[44] = test system: OVCAR-8 ovarian
[45] = test system: COLO 205 colon
[46] = test system: PC-3 prostate
[47] = test system: UO-31 renal
[48] = test system: M14 melanoma
[49] = test system: NCI-H226 lung
[50] = test system: 786-0 renal
[51] = test system: HS 578T breast
[52] = test system: DU-145 prostate
[53] = test system: CAKI-1 renal
[54] = test system: SW-620 colon
[55] = test system: MDA-MB-435
[56] = test system: MALME-3M melanoma
[57] = test system: HOP-62 NSCLC
[58] = test system: IGROV1 ovarian

O=C(c1ccc2ccccc2c1)N(Cc1cccnc1)C(=S)N(Cc1cccnc1)C(=O)c1ccc2ccccc2c1
97.8 µM: TGI [47]
40 µM: TGI [30]
75.1 µM: TGI [45]
69.7 µM: TGI [9]
95.7 µM: TGI [36]
44.1 µM: TGI [11]
32 µM: TGI [1]
88.7 µM: TGI [18]
81.2 µM: TGI [3]
43.9 µM: TGI [31]
53.5 µM: TGI [38]
63.7 µM: TGI [35]
73.4 µM: TGI [50]
69.5 µM: TGI [52]
41.3 µM: TGI [29]
38.6 µM: TGI [5] | TGI [12]
55.2 µM: TGI [57]
77.1 µM: TGI [41]
75.7 µM: TGI [15]
65.8 µM: TGI [13]
45.3 µM: TGI [2]
66.5 µM: TGI [44]
44 µM: TGI [53]
55 µM: TGI [48]
37 µM: TGI [10]
78.5 µM: TGI [16]
> 100 µM: TGI [4] | TGI [6] | TGI [7] | TGI [8] | TGI [14] | TGI [17] | TGI [19] | TGI [21] | TGI [22] | TGI [23] | TGI [24] | TGI [25] | TGI [26] | TGI [27] | TGI [28] | TGI [34] | TGI [37] | TGI [39] | TGI [40] | TGI [42] | TGI [43] | TGI [46] | TGI [49] | TGI [51] | TGI [54] | TGI [55] | TGI [56]
48.7 µM: TGI [32]
78.9 µM: TGI [20]
42.7 µM: TGI [33]

COC(=O)c1ccc(NC(=O)Nc2ccc3oc(=O)c4ccccc4c3c2)cc1
active: GI50 [22] 177 nM
inactive: GI50 [1] 27.1 µM | GI50 [2] 33.5 µM | GI50 [3] 28 µM | GI50 [4] 62.5 µM | GI50 [5] 30.9 µM | GI50 [6] 40.3 µM | GI50 [7] 56.2 µM | GI50 [8] 55.9 µM | GI50 [9] 28.5 µM | GI50 [10] 39.2 µM | GI50 [11] 23.7 µM | GI50 [12] 28.1 µM | GI50 [13] > 100 µM | GI50 [14] 82.2 µM | GI50 [16] 26.2 µM | GI50 [17] 20.3 µM | GI50 [18] 41.7 µM | GI50 [20] > 100 µM | GI50 [21] 17.6 µM | GI50 [23] 76 µM | GI50 [24] 97.7 µM | GI50 [58] 37.8 µM | GI50 [25] 35.2 µM | GI50 [26] 33 µM | GI50 [27] 714 nM | GI50 [28] 10.9 µM | GI50 [29] 5.21 µM | GI50 [30] > 100 µM | GI50 [32] 60.7 µM | GI50 [33] 29.5 µM | GI50 [34] 44.5 µM | GI50 [35] 71.4 µM | GI50 [36] 41.6 µM | GI50 [37] 32.4 µM | GI50 [38] 32 µM | GI50 [39] 27.8 µM | GI50 [40] > 100 µM | GI50 [41] > 100 µM | GI50 [42] > 100 µM | GI50 [43] 29.5 µM | GI50 [44] 36.6 µM | GI50 [45] 32.5 µM | GI50 [46] 36.2 µM | GI50 [47] 62.5 µM | GI50 [48] 31.8 µM | GI50 [49] 64.1 µM | GI50 [50] 18 µM | GI50 [52] 56.1 µM | GI50 [53] 70.9 µM | GI50 [54] 30.9 µM | GI50 [55] 27.9 µM | GI50 [56] 28.7 µM | GI50 [57] 17.8 µM
96.2 µM: TGI [38]
74 µM: TGI [1]
17.3 µM: TGI [29]
62.1 µM: TGI [21]
73.7 µM: TGI [56]
80.9 µM: TGI [9]
55.9 µM: TGI [11]
41.9 µM: TGI [50]
14 µM: TGI [27]
89.3 µM: TGI [55]
54.6 µM: TGI [33]
29.7 µM: TGI [51]
89.8 µM: TGI [26]
39.6 µM: TGI [57]
21.7 µM: TGI [22]
71.2 µM: TGI [16]
> 100 µM: TGI [2] | TGI [3] | TGI [4] | TGI [5] | TGI [6] | TGI [7] | TGI [8] | TGI [10] | TGI [12] | TGI [13] | TGI [14] | TGI [17] | TGI [18] | TGI [20] | TGI [23] | TGI [24] | TGI [58] | TGI [25] | TGI [28] | TGI [30] | TGI [32] | TGI [34] | TGI [35] | TGI [36] | TGI [37] | TGI [39] | TGI [40] | TGI [41] | TGI [42] | TGI [43] | TGI [44] | TGI [45] | TGI [46] | TGI [47] | TGI [48] | TGI [49] | TGI [52] | TGI [53]
98.3 µM: TGI [54]
